Patent US20240293392A1, “INHIBITOR COMPOUNDS” (NeoPhore Limited, priority 2021, published 2024)
Where a name gives a salt, the structure may show the parent alone.

Columns and labels:
[1] = target: T1, recombinant N-terminal MLH1 (residues 15-340) (Homo sapiens, UniProt P40692); assay: Fluorescence Polarisation Assay for MLH1; format: binding; conditions: fluorescence polarisation probe displacement; 100 nM N-terminal MLH1, 5 nM probe compound
T1 construct: recombinant N-terminal MLH1 (residues 15-340)
T1 sequence (P40692 15-340): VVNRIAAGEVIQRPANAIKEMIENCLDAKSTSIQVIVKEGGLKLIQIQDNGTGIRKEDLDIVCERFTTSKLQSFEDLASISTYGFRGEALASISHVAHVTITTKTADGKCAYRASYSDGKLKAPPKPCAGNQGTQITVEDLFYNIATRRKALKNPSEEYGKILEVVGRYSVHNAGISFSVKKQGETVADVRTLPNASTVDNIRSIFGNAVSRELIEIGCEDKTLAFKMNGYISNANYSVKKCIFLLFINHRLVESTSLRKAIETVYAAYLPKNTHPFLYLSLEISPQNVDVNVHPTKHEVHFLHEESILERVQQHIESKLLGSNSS
Outline: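 FP displacement assay: 100 nM MLH1 (residues 15-340) preincubated 30 min at room temperature with compound in 25 mM HEPES pH 7.5, 250 mM NaCl, 10 mM MgCl2, 0.01% Triton X-100, 5 mM DTT, then 5 nM rhodamine-labelled probe added and read immediately. Data normalised to no-inhibitor and no-enzyme controls.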

[2] = target: T2, recombinant N-terminal PMS2 (residues 1-365) (Homo sapiens, UniProt P54278); assay: Fluorescence Polarisation Assay for PMS2; format: binding; conditions: fluorescence polarisation probe displacement; 10 nM N-terminal PMS2, 5 nM probe compound; read-out: PMS2 IC50
T2 construct: recombinant N-terminal PMS2 (residues 1-365)
T2 sequence (P54278 1-365): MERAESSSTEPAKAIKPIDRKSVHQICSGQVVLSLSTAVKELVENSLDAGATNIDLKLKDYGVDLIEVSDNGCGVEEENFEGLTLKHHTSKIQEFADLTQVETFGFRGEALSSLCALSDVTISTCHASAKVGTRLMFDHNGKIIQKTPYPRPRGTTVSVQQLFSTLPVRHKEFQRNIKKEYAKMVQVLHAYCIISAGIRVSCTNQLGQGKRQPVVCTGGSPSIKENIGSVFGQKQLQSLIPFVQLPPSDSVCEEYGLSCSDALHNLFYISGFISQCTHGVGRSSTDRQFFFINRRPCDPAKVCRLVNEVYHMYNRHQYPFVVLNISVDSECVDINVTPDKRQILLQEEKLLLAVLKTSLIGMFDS
Outline: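 Competition fluorescence polarisation with 10 nM N-terminal PMS2 and 5 nM fluorescent probe (final), read after 1 h at room temperature following 30 min compound pre-incubation. Data normalised to no-inhibitor and no-enzyme controls; single-point screening or serial dilutions for potency.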

Compound | IC50 [1] [nM] | IC50 [2] [nM]
O=C(c1c(O)cc(O)cc1OCC1CCOCC1)N1Cc2cccc(NC3CCOC3)c2C1 (centres unmarked) [Example 98, (2,4-Dihydroxy-6-((tetrahydro-2H-pyran-4-yl)methoxy)phenyl)(4-((tetrahydrofuran-3-yl)amino)isoindolin-2-yl)methanone] | 1000 to 10000 | > 10000
O=C(c1c(O)cc(O)cc1OCc1cccnn1)N1Cc2cccc(NC3CCOC3)c2C1 (centres unmarked) [Example 99, (2,4-Dihydroxy-6-(pyridazin-3-ylmethoxy)phenyl)(4-((tetrahydrofuran-3-yl)amino)isoindolin-2-yl)methanone] | 1000 to 10000 | > 10000
Nc1cccc2c1CN(C(=O)c1c(O)cc(O)cc1OCc1ccccc1)CC2 [Example 100, 8-Amino-3,4-dihydroisoquinolin-2(1H)-yl(2-(benzyloxy)-4,6-dihydroxyphenyl)methanone] | 1000 to 10000 | 1000 to 10000
CC(=O)Nc1cccc2c1CN(C(=O)c1c(O)cc(O)cc1OCc1ccccc1)CC2 [Example 101, N-(2-(2-(benzyloxy)-4,6-dihydroxybenzoyl)-1,2,3,4-tetrahydroisoquinolin-8-yl)acetamide] | 1000 to 10000 | 1000 to 10000
O=C(Nc1cccc2c1CN(C(=O)c1c(O)cc(O)cc1OCc1ccccc1)CC2)C1CCOC1 (centres unmarked) [Example 102, N-(2-(2-(Benzyloxy)-4,6-dihydroxybenzoyl)-1,2,3,4-tetrahydroisoquinolin-8-yl) tetrahydrofuran-3-carboxamide] | > 10000 | > 10000
CC(C)(C)OC(=O)NCCCCCN1CCN(Cc2ccc3c(c2)CN(C(=O)c2c(O)cc(O)cc2OCc2ccccc2)C3)CC1 [Example 103, t-Butyl (5-(4-((2-(2-(benzyloxy)-4,6-dihydroxybenzoyl)isoindolin-5-yl)methyl)piperazin-1-yl)pentyl)carbamate] | < 1000 | < 1000
NCCCCCN1CCN(Cc2ccc3c(c2)CN(C(=O)c2c(O)cc(O)cc2OCc2ccccc2)C3)CC1 [Example 104, (5-((4-(5-Aminopentyl)piperazin-1-yl)methyl)isoindolin-2-yl)(2-(benzyloxy)-4,6 dihydroxyphenyl)methanone hydrochloride] | < 1000 | < 1000
O=C(c1c(O)cc(O)cc1OCc1ccccc1)N1Cc2cccc(NCC3CCOC3)c2C1 (centres unmarked) [Example 112, (2-(Benzyloxy)-4,6-dihydroxyphenyl)(4-(((tetrahydrofuran-3-yl)methyl)amino)isoindolin-2-yl)methanone] | < 1000 | 1000 to 10000
CN(C)C(=O)N1CCC(Nc2cccc3c2CN(C(=O)c2c(O)cc(O)cc2OCc2ccccc2)CC3)C1 (centres unmarked) [Example 113, 3-((2-(2-(Benzyloxy)-4,6-dihydroxybenzoyl)-1,2,3,4-tetrahydroisoquinolin-8-yl)amino)-N,N-dimethylpyrrolidine-1-carboxamide] | < 1000 | > 10000
CN1CCC(Nc2cccc3c2CN(C(=O)c2c(O)cc(O)cc2OCc2ccccc2)CC3)CC1=O (centres unmarked) [Example 114, 4-((2-(2-(Benzyloxy)-4,6-dihydroxybenzoyl)-1,2,3,4-tetrahydroisoquinolin-8-yl)amino)-1-methylpiperidin-2-one] | 1000 to 10000 | > 10000
O=C(c1c(O)cc(O)cc1OCc1ccccc1)N1CCc2ncnc(N[C@H]3CCOC3)c2C1 [Example 115, (S)-(2-(Benzyloxy)-4,6-dihydroxyphenyl)(4-((tetrahydrofuran-3-yl)amino)-7,8-dihydropyrido[4,3-d]pyrimidin-6(5H)-yl)methanone] | 1000 to 10000 | 1000 to 10000
O=C(c1c(O)cc(O)cc1OCc1ccccc1)N1CCc2ccc(F)c(NC3CCOC3)c2C1 (centres unmarked) [Example 116, (2-(Benzyloxy)-4,6-dihydroxyphenyl)(7-fluoro-8-((tetrahydrofuran-3-yl)amino)-3,4-dihydroisoquinolin-2(1H)-yl)methanone] | 1000 to 10000 | 1000 to 10000
Cn1cc(Nc2cccc3c2CN(C(=O)c2c(O)cc(O)cc2OCc2ccccc2)CC3)cn1 [Example 117, (2-(Benzyloxy)-4,6-dihydroxyphenyl)(8-((1-methyl-1H-pyrazol-4-yl)amino)-3,4-dihydroisoquinolin-2(1H)-yl)methanone] | < 1000 | 1000 to 10000
O=C(c1c(O)cc(O)cc1OCc1ccccc1)N1CCc2cccc(Nc3cccnc3)c2C1 [Example 118, (2-(Benzyloxy)-4,6-dihydroxyphenyl)(8-(pyridin-3-ylamino)-3,4-dihydroisoquinolin-2(1H)-yl)methanone] | 1000 to 10000 | 1000 to 10000
O=C(c1c(O)cc(O)cc1OCc1ccccc1)N1CCc2cccc(Nc3cnccn3)c2C1 [Example 119, (2-(Benzyloxy)-4,6-dihydroxyphenyl)(8-(pyrazin-2-ylamino)-3,4-dihydroisoquinolin-2(1H)-yl)methanone] | 1000 to 10000 | 1000 to 10000
O=C(c1c(O)cc(O)cc1OCc1ccccc1)N1CCc2cccc(Nc3ccnnc3)c2C1 [Example 120, (2-(Benzyloxy)-4,6-dihydroxyphenyl)(8-(pyridazin-4-ylamino)-3,4-dihydroisoquinolin-2(1H)-yl)methanone] | < 1000 | 1000 to 10000
CN1CCN(Cc2cc3c(c(N[C@H]4CCOC4)c2)CN(C(=O)c2c(O)cc(O)cc2OCc2ccccc2)CC3)CC1 [Example 121, (S)-(2-(Benzyloxy)-4,6-dihydroxyphenyl)(6-((4-methylpiperazin-1-yl)methyl)-8-((tetrahydrofuran-3-yl)amino)-3,4-dihydroisoquinolin-2(1H)-yl)methanone] | < 1000 | < 1000
CN1CCN(Cc2cc3c(c(N[C@@H]4CCOC4)c2)CN(C(=O)c2c(O)cc(O)cc2OCc2ccccc2)CC3)CC1 [Example 122, (R)-(2-(Benzyloxy)-4,6-dihydroxyphenyl)(6-((4-methylpiperazin-1-yl)methyl)-8-((tetrahydrofuran-3-yl)amino)-3,4-dihydroisoquinolin-2(1H)-yl)methanone] | < 1000 | 1000 to 10000
Cc1ncncc1Nc1cccc2c1CN(C(=O)c1c(O)cc(O)cc1OCc1ccccc1)CC2 [Example 123, (2-(Benzyloxy)-4,6-dihydroxyphenyl)(8-((4-methylpyrimidin-5-yl)amino)-3,4-dihydroisoquinolin-2(1H)-yl)methanone] | 1000 to 10000 | > 10000
Cc1cccc(COc2cc(O)cc(O)c2C(=O)N2CCc3cccc(N[C@H]4CCOC4)c3C2)c1 [Example 124, (S)-(2,4-Dihydroxy-6-((3-methylbenzyl)oxy)phenyl)(8-((tetrahydrofuran-3-yl)amino)-3,4-dihydroisoquinolin-2(1H)-yl)methanone] | < 1000 | < 1000
CN(C)Cc1cc2c(c(N[C@H]3CCOC3)c1)CN(C(=O)c1c(O)cc(O)cc1OCc1ccccc1)CC2 [Example 125, (S)-(2-(Benzyloxy)-4,6-dihydroxyphenyl)(6-((dimethylamino)methyl)-8-((tetrahydrofuran-3-yl)amino)-3,4-dihydroisoquinolin-2(1H)-yl)methanone] | < 1000 | < 1000
CN(C)Cc1cc2c(c(N[C@@H]3CCOC3)c1)CN(C(=O)c1c(O)cc(O)cc1OCc1ccccc1)CC2 [Example 126, (R)-(2-(Benzyloxy)-4,6-dihydroxyphenyl)(6-((dimethylamino)methyl)-8-((tetrahydrofuran-3-yl)amino)-3,4-dihydroisoquinolin-2(1H)-yl)methanone] | < 1000 | 1000 to 10000
CN1CCN(C(=O)c2cc3c(c(N[C@H]4CCOC4)c2)CN(C(=O)c2c(O)cc(O)cc2OCc2ccccc2)CC3)CC1 [Example 127, (S)-(2-(2-(Benzyloxy)-4,6-dihydroxybenzoyl)-8-((tetrahydrofuran-3-yl)amino)-1,2,3,4-tetrahydroisoquinolin-6-yl)(4-methylpiperazin-1-yl)methanone] | < 1000 | < 1000
CNc1cc(OCCOC)cc2c1CN(C(=O)c1c(O)cc(O)cc1OCc1ccccc1)CC2 [Example 128, (2-(Benzyloxy)-4,6-dihydroxyphenyl)(6-(2-methoxyethoxy)-8-(methylamino)-3,4-dihydroisoquinolin-2(1H)-yl)methanone] | 1000 to 10000 | 1000 to 10000
CN(C)C(=O)c1cc2c(c(N[C@@H]3CCOC3)c1)CN(C(=O)c1c(O)cc(O)cc1OCc1ccccc1)CC2 [Example 129, (R)-2-(2-(Benzyloxy)-4,6-dihydroxybenzoyl)-N,N-dimethyl-8-((tetrahydrofuran-3-yl)amino)-1,2,3,4-tetrahydroisoquinoline-6-carboxamide] | < 1000 | 1000 to 10000
